Measurements as given in paper PMC11434840, “Discovery of Benzopyrone-Based Candidates as Potential Antimicrobial and Photochemotherapeutic Agents through Inhibition of DNA Gyrase Enzyme B: Design, Synthesis, In Vitro and In Silico Evaluation” (Pharmaceuticals, 2024).
Like-named read-outs stand apart in the source and are kept apart here.

How the values were obtained:
[1] = tested on: Bacillus subtilis ATCC 14579; experiment: Photosensitizing assay (MIC before and after UV irradiation, agar cup-plate); format: cell-based; set-up: key to MIC (mg mL^−1) Control / MIC (mg mL^−1) Test / MIC (mM) Control / MIC (mM) Test: -: no activity; conditions: for MIC: Bacillus subtilis, ATCC14579, light or radiation study; for MIC / MIC (mM) Test / MIC (mg mL^−1) Test / MIC (mM) Control / MIC (mg mL^−1) Control: B. subtilis; for photosensitizing activity against B. subtilis (in words): after 20 min of irradiation
Procedure: The photosensitizing activity was determined using the agar cup-plate method (described in Section 2.3) with Hi-Media agar medium. The antibacterial activity against Bacillus subtilis ATCC 14579 was measured before and after exposure to UV lamp (365 nm). The diameters of the inhibition zones were measured in mm and the results were compared with xanthotoxin. The tested organism used was Bacillus subtilis.
For the photosensitizing activity, xanthotoxin was used as a reference drug and DMF as a negative control. The minimum inhibitory concentrations (MIC) were determined using the agar cup-plate method. Each test compound (50 mg) was dissolved in 1 mL DMF (50 mg mL^−1), which was used as a stock solution to carry out the twofold dilution technique. The sample size for all the compounds was adjusted to 0.1 mL. The solution of the test compound (0.1 mL) was added to the cups. The plates were divided into test plates and duplicate plates. Before irradiation, the test plates were incubated in the dark at 37 °C for 3 h to permit the diffusion of the tested compounds through the agar layer. The duplicate plates were incubated overnight and used as a control for the determination of the antibacterial activity. The covers were removed from the test plates, and the dishes were exposed to UV lamp (365 nm) for 20 min. After irradiation, the plates were left overnight in the dark at 37 °C. MIC, the least concentration preventing visible bacterial growth, was determined in both the control and test, indicating the antibacterial and photosensitizing activity of the tested compounds, respectively.
To evaluate the significance of the difference in the results, each experiment was repeated at least three times. […] GraphPad Prism-version 5 (GraphPad Software, Inc., La Jolla, CA, USA) was used to perform statistical analysis of the results.

[2] = tested on: Escherichia coli ATCC 25922; experiment: Antimicrobial agar cup-plate assay, E. coli; format: cell-based; set-up: key to Inhibition Zone (mm) E. coli: -: no activity; conditions: for Inhibition Zone (mm) E. coli: 0.1 mL of compound in DMF, overnight incubation, mean ± SD, at least three experiments
Procedure: (§1) The antimicrobial activity of all newly synthesized compounds was determined using the agar cup-plate method using the Hi-Media agar medium. Xanthotoxin, tobramycin, and amphotericin B were used as reference drugs. All newly synthesized compounds were tested against two strains of Gram-positive bacteria (Bacillus subtilis ATCC 14579 and Staphylococcus aureus ATCC 25923), Gram-negative bacteria (Escherichia coli ATCC 25922), and yeast (Candida albicans ATCC 10231).
(§2) The nutrient agar medium consists of 0.3% of beef extract, 0.5% of peptone, 0.1% dipotassium hydrogen phosphate, and 1.5% agar. Broth cultures of the organisms were prepared by incubating slant agar seeded with the organisms overnight.
(§3) The prepared broth culture (0.02 mL) was carefully added to sterile Petri dishes. Then, 10 mL of the liquefied nutrient agar medium was poured into each dish, mixed uniformly, and allowed to solidify. Using a sterilized cork borer, cups (9 mm) were scooped out of the agar media contained in the Petri dishes. Each test compound (50 mg) was dissolved in 1 mL DMF (50 mg mL^−1), which was used as a stock solution to carry out the twofold dilution technique. A fixed volume (0.1 mL) of the tested compounds dissolved in dimethylformamide (DMF) was added. Each plate contained a cup filled with DMF to disregard the effect of solvent. Additionally, two other cups were filled with tobramycin and xanthotoxin being used as reference drugs. The plates were incubated overnight to examine the antimicrobial activity. Zones of inhibition obtained by each test compound were measured in millimeters and the results are recorded in Table 2.
(§4) GraphPad Prism-version 5 (GraphPad Software, Inc., La Jolla, CA, USA) was used for statistical analysis.

[3] = tested on: Staphylococcus aureus ATCC 25923; experiment: Antimicrobial agar cup-plate assay, S. aureus; format: cell-based; set-up: key: -: no activity; conditions: 0.1 mL of compound in DMF, overnight incubation, mean ± SD, at least three experiments
Procedure: as §1, §2, §3, §4

[4] = tested on: Candida albicans ATCC 10231; experiment: Antimicrobial agar cup-plate assay, C. albicans; format: cell-based; set-up: key to Inhibition Zone (mm) C. albicans: -: no activity; conditions: for Inhibition Zone (mm) C. albicans: 0.1 mL of compound in DMF, overnight incubation, mean ± SD, at least three experiments
Procedure: as §1, §2, §3, §4

[5] = tested on: Bacillus subtilis ATCC 14579; experiment: Antimicrobial agar cup-plate assay, B. subtilis; format: cell-based; set-up: key: -: no activity; conditions: 0.1 mL of compound in DMF, overnight incubation, mean ± SD, at least three experiments
Procedure: as §1, §2, §3, §4

[6] = 20 min, after irradiation with UV lamp (365 nm) for 20 min (photosensitizing activity), 100 μL per cup, read-out: MIC (mg mL^−1) Test
[7] = 20 min, after irradiation with UV lamp (365 nm) for 20 min (photosensitizing activity), read-out: MIC (mM) Test
[8] = without irradiation (antibacterial activity), 100 μL per cup, read-out: MIC (mg mL^−1) Control
[9] = without irradiation (antibacterial activity), read-out: MIC (mM) Control
[10] = after irradiation with UV lamp (365 nm) for 20 min (photosensitizing activity)
[11] = after irradiation with UV lamp (365 nm) for 20 min (photosensitizing activity), 100 μL per cup
[12] = without irradiation (antibacterial activity)
[13] = without irradiation (antibacterial activity), 100 μL per cup

SMILES | melting point [°C] | MIC [1, 6] [µg/mL] | MIC [1, 7] [mM] | MIC [1, 8] [µg/mL] | MIC [1, 9] [mM] | photosensitizing activity against B. subtilis (in words) [1] | Inhibition Zone (mm) E. coli [2] | Inhibition Zone (mm) S. aureus [3] | Inhibition Zone (mm) C. albicans [4] | Inhibition Zone (mm) B. subtilis [5] | antibacterial activity against E. coli (in words) [2] | antifungal activity against C. albicans (in words) [4] | MIC (mM) Test [1, 10] | MIC (mg mL^−1) Test [1, 11] | MIC (mM) Control [1, 12] | MIC (mg mL^−1) Control [1, 13]
CCc1cc2c(C)cc(=O)oc2c2c(C)c(C)oc12 [Compound 3a, 9-Ethyl-2,3,7-trimethyl-5H-furo[2,3-h]benzopyran-5-one] | 199 to 201 | 780 | 3.04 | 780 | 3.04 | without any photosensitizing activity | 15 ± 1.414 mm | 30 ± 1.414 mm | 16 ± 0.8165 mm | 20 ± 0.8165 mm |  |  |  |  |  | 
CCc1cc2c(-c3ccccc3)cc(=O)oc2cc1OC1CCCCC1=O (stereo not shown) [Compound 4b, 6-Ethyl-7-(2-oxocyclohexyloxy)-4-phenyl-2H-1-benzopyran-2-one] | 150 to 152 | 3120 | 8.62 | 3120 | 8.62 |  | - | 29 ± 0.8165 mm | 14 ± 1.414 mm | 17 ± 0.8165 mm | inactive |  |  |  |  | 
NC[C@H]1O[C@H](O[C@H]2[C@H](O)[C@@H](O[C@H]3O[C@H](CO)[C@@H](O)[C@H](N)[C@H]3O)[C@H](N)C[C@@H]2N)[C@H](N)C[C@@H]1O [Tobramycin, reference compound] |  |  |  |  |  |  | 20 ± 1.414 mm | 21 ± 0.8165 mm |  |  |  |  |  |  |  | 
C[C@@H]1[C@H](O)[C@@H](C)/C=C/C=C/C=C/C=C/C=C/C=C/C=C/[C@H](O[C@@H]2O[C@H](C)[C@@H](O)[C@H](N)[C@@H]2O)C[C@@H]2O[C@](O)(C[C@@H](O)C[C@@H](O)[C@H](O)CC[C@@H](O)C[C@@H](O)CC(=O)O[C@H]1C)C[C@H](O)[C@H]2C(=O)O [Amphotercin B, amphotericin B, reference compound] |  |  |  |  |  |  |  |  | 14 ± 1.414 mm |  |  |  |  |  |  | 
CCc1cc2c(C)cc(=O)oc2cc1OCC(=O)c1ccccc1 [Compound 7a, 6-Ethyl-4-methyl-7-phenacyloxy-2H-1-benzopyran-2-one] | 165 to 166 | 1500 | 4.65 | 6250 | 19.4 |  | 20 ± 0.8165 mm | 28 ± 1.414 mm | - | 12 ± 1.414 mm |  |  |  |  |  | 
CCc1cc2c(-c3ccccc3)cc(=O)oc2c2c3c(oc12)CCCC3 [Compound 5b, 6-Ethyl-4-phenyl-8,9,10,11-tetrahydro-2H-benzofuro[2,3-h]benzopyran-2-one] | 108 to 110 | 780 | 2.26 | 3120 | 9.07 |  | - | 26 ± 0.8165 mm | - | 22 ± 1.414 mm |  | inactive |  |  |  | 
CCc1cc2c(C)cc(=O)oc2cc1OC1CCCCC1=O (stereo not shown) [Compound 4a, 6-Ethyl-4-methyl-7-(2-oxocyclohexyloxy)-2H-1-benzopyran-2-one] | 160 to 162 | 780 | 2.6 | 3120 | 10.4 |  | - | 24 ± 1.414 mm | 18 ± 1.414 mm | 15 ± 0.8165 mm | inactive |  |  |  |  | 
CCc1cc2c(-c3ccccc3)cc(=O)oc2c2c(-c3ccc(OC)cc3)coc12 [Compound 8f, 9-Ethyl-3-(4-methoxyphenyl)-7-phenyl-5H-furo[2,3-h]benzopyran-5-one] | 150 to 153 | 3120 | 7.88 | 6250 | 15.8 |  | 18 ± 0.8165 mm | 20 ± 1.414 mm | - | 14 ± 1.414 mm |  |  |  |  |  | 
CCc1cc2c(-c3ccccc3)cc(=O)oc2cc1OCC(=O)c1ccc(OC)cc1 [Compound 7f, 6-Ethyl-7-(4-methoxyphenacyloxy)-4-phenyl-2H-1-benzopyran-2-one] | 183 to 185 |  |  |  |  |  | 23 ± 0.8165 mm | - | 16 ± 0.8165 mm | - |  |  | - | - | - | -
CCc1cc2c(-c3ccccc3)cc(=O)oc2c2c(C)c(C)oc12 [Compound 3b, 2,3-Dimethyl-9-ethyl-7-phenyl-5H-furo[2,3-h]benzopyran-5-one] | 90 to 92 | 3120 | 9.82 | 3120 | 9.82 | without any photosensitizing activity | 16 ± 1.414 mm | 22 ± 0.8165 mm | 15 ± 1.414 mm | 10 ± 1.414 mm |  |  |  |  |  | 
CCc1cc2c(C)cc(=O)oc2cc1OC(C)C(C)=O (stereo not shown) [Compound 2a, 6-Ethyl-4-methyl-7-(3-oxobutan-2-yloxy)-2H-1-benzopyran-2-one] | 95 to 97 | 6250 | 22.8 | 6250 | 22.8 |  | - | 14 ± 1.414 mm | 11 ± 0.8165 mm | 15 ± 1.414 mm | inactive |  |  |  |  | 
COc1c2occc2cc2ccc(=O)oc12 [Xanthotoxin, reference compound] |  |  |  |  |  |  | 25 ± 0.8165 mm | - | 15 ± 0.8165 mm | 13 ± 0.8165 mm |  |  | 6.94 mM | 1500 µg/mL | 57.82 mM | 12500 µg/mL
CCc1cc2c(C)cc(=O)oc2c2c3c(oc12)CCCC3 [Compound 5a, 6-Ethyl-4-methyl-8,9,10,11-tetrahydro-2H-benzofuro[2,3-h]benzopyran-2-one] |  | 780 | 2.76 | 3120 | 11.1 |  | 16 ± 1.414 mm | 30 ± 0.8165 mm | 18 ± 0.8165 mm | 22 ± 0.8165 mm |  |  |  |  |  | 
